Measurements as given in patent US6121323A, “Bishydroxyureas” (3M Innovative Properties Company, priority 1997, dated 2000).

Biological target: T1, 5-lipoxygenase (Homo sapiens, UniProt P09917)
T1 construct: endogenous in cells; host or cells: leukocytes from whole human blood (EDTA, dextran sedimentation, hypotonic lysis)
T1 sequence (P09917 1-674): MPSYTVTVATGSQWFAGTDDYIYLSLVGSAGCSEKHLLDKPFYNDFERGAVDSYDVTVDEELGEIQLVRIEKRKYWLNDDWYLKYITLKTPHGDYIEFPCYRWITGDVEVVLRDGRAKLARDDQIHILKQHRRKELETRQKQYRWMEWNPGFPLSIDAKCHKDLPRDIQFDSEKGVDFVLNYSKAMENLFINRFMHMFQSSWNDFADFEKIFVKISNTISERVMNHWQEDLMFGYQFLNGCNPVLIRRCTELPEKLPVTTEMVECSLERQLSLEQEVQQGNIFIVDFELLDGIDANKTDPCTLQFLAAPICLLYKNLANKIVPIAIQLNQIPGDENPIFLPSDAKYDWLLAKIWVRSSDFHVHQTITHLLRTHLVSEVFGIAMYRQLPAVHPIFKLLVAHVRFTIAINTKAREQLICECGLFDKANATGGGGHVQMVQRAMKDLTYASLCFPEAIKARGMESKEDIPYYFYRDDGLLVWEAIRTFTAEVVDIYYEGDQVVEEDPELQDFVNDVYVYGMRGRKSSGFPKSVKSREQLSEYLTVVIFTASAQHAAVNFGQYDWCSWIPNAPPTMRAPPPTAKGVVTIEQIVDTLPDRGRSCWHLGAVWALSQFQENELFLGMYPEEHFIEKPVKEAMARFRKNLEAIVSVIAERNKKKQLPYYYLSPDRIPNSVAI
Assay: 5-Lipoxygenase inhibition in human leukocytes (LTC4 by radioimmunoassay)
Format: cell-based
Settings: A23187 stimulated, LTC4 readout, read-out: IC50 (concentration producing 50% leukotriene biosynthesis inhibition)
Description: 5-LIPOXYGENASE INHIBITION IN HUMAN LEUKOCYTES
The test method described below measures the ability of compounds of the invention to inhibit 5-lipoxygenase activity in human leukocytes.
Whole human blood is collected by venipuncture into EDTA (1.4 mL of 0.25M per 60 mL of whole blood). The red blood cells are sedimented with a 6% dextran/0.9% sodium chloride solution at a ratio of 25 mL whole blood to 15 mL dextran solution. The blood/dextran combination is mixed by inversion and the red blood cells are allowed to settle out for 45 minutes at ambient temperature. The plasma/dextran supernatant is removed then centrifuged at ambient temperature at 3000 rpm for 10 minutes. The plasma/dextran supernatant is removed and the cells are resuspended in 10 mL of the plasma/dextran solution. The cell suspension is combined with 20 mL of water, mixed for 1.5 minutes then immediately combined with 10 mL of 3.6% sodium chloride, mixed and centrifuged at ambient temperature at 3000 rpm for 10 minutes. The pellet is washed with 40 mL of Tris buffer (5.55 mM dextrose, 15.36 mM Tris base, 136.9 mM sodium chloride with pH 7.3-7.4) then centrifuged at 3000 rpm for 10 minutes. The pellet is then resuspended into Tris buffer containing 1 mM calcium chloride to provide approximately 1.0×10^7 cells/mL.
Compounds are dissolved in dimethyl sulfoxide. Compounds are tested at concentrations of 100, 33, 11, 3.7, 1.2 and 0.41 μM. Each concentration is tested in duplicate.
A 15 μL portion of Tris buffer containing 1 mM calcium chloride is added to each well of a 96 well microtiter plate. A 1 μL portion of drug solution or vehicle (dimethyl sulfoxide) is added to each well followed by the addition of a 75 μL portion of the cell suspension. The plates are gently mixed then allowed to stand at ambient temperature for 10 minutes. A 10 μL portion of 30 μM A23187 Calcium Ionophore (prepared by dissolving the ionophore in DMSO and then diluting 1:80 into the Tris buffer) is added to each well except the wells that contain the blanks. The blank wells measure the level of LTC4 production in the absence of A23187. The plates are gently mixed then incubated at 37° C. for 10 minutes.
Following incubation the plates are centrifuged at 2000 rpm for 1.5 minutes and the supernatant is removed as quickly as possible to stop the reaction. The supernatants are frozen at -20° C. until they are assayed.
The supernatants are assayed for the presence of Leukotriene C4 by radioimmunoassay which is performed according to the manufacturer's instructions (Advanced Magnetics; Cambridge, Mass.). Inhibition of leukotriene biosynthesis is calculated as the ratio of the amount of LTC4 formed in the presence (LTC4 +cpd) and absence (LTC4 no cpd) of compound according to the following equation. [formula] IC50 values (concentrations of compound producing 50% leukotriene biosynthesis inhibition) are calculated by linear regression analysis of percentage inhibition versus log compound concentration plots.

IC50	Compound
65 µM	CCC(CC)N(O)C(=O)NC(C)(C)c1cccc(C(C)(C)NC(=O)N(O)C(CC)CC)c1 [Example 13, 1,1'-(m-Phenylene)bis(1-methyl-1-(3-hydroxy-3-(1-ethylpropyl)ureido)ethane)]
12 µM	CCC(CC)N(O)C(=O)NCCCC(C)CNC(=O)N(O)C(CC)CC (stereo not shown) [Example 17, 1,1'-(2-Methylpentamethylene)bis(3-hydroxy-3-(1-ethylpropyl)urea)]
0.1 µM	CCC(CC)N(O)C(=O)Nc1ccc(Oc2ccc(NC(=O)N(O)C(CC)CC)cc2)cc1 [Example 14, 4,4'-Oxybis(1-hydroxy-1-(1-ethylpropyl)-3-phenylurea)]
2.1 µM	CCC(CC)N(O)C(=O)Nc1ccc(NC(=O)N(O)C(CC)CC)cc1 [Example 15, 1,1'-(p-Phenylene)bis(3-hydroxy-3-(1-ethylpropyl)urea)]
58.6 µM	CCC(CC)N(O)C(=O)Nc1ccc(C)c(NC(=O)N(O)C(CC)CC)c1 [Example 16, 1,1'-(4-Methyl-m-phenylene)bis(3-hydroxy-3-(1-ethylpropyl)urea)]
0.33 µM	CCC(CC)N(O)C(=O)NCCCCCCCCNC(=O)N(O)C(CC)CC [Example 18, 1,1'-Octamethylenebis(3-hydroxy-3-(1-ethylpropyl)urea)]
0.11 µM	CCC(CC)N(O)C(=O)Nc1ccc(Cc2ccc(NC(=O)N(O)C(CC)CC)c(Cl)c2)cc1Cl [Example 19, 4,4'-Methylenebis(1-hydroxy-1-(1-ethylpropyl)-3-(2-chlorophenyl)urea)]
